Activity calls are given as the source filed them.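 The calls were made as follows: active = compounds that block at least 90% of GSTO1 probe labeling in cell lysate; inactive = the rest.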
molecular target: Glutathione S-transferase omega-1 (Homo sapiens) (UniProt P78417); assay: endogenous GSTO1 inhibitors in proteome, late-stage follow-up, cell lysate, MDA-MB-435 proteome, gel ABPP, SE-Rh, percent inhibition (AID 463098); conditions: gel ABPP SE-Rh fluorescence, at 1 µM, active compounds read high
Sequence (P78417 whole entry, looked up): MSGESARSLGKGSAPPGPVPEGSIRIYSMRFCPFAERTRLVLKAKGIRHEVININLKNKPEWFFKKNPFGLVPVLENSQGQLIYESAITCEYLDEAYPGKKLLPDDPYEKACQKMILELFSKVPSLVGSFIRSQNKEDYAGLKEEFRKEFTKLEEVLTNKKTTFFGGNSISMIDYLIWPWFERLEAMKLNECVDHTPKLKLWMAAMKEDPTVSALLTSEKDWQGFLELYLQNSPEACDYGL

Row | Structure (SMILES) | inhibition
1 | COCCN(C(=O)CCl)C(C(=O)NC1CCCCC1)c1ccccc1C (configuration not stated) | 25% (inactive)
2 | O=c1cc(CCl)nc2sc3ccccc3n12 | 83% (inactive)
3 | CCCCCCCN(C(=O)CCl)c1ccccc1C | 51% (inactive)
4 | COc1ccc(N(C(=O)CCl)C(C(=O)NC2CCCCC2)c2cccnc2)cc1 (configuration not stated) | 97%
5 | O=C(NCCc1ccccc1)C(c1cccs1)N(C(=O)CCl)c1ccc(Cl)cc1 (configuration not stated) | 88% (inactive)
6 | COc1cc2c(cc1OC)C(c1cc(Br)ccc1F)N(C(=O)CCl)CC2 (configuration not stated) | 80% (inactive)
7 | Cc1ccc(N(Cc2cc(=O)[nH]c3ccccc23)C(=O)CCl)cc1 | 41% (inactive)
8 | CCCCCCN(C(=O)CCl)c1ccccc1 | 43% (inactive)
9 | COc1ccc(N(Cc2cc(=O)[nH]c3ccccc23)C(=O)CCl)cc1 | 38% (inactive)
10 | CCOC(=O)c1sc(N(Cc2ccccc2)C(=O)CCl)nc1C | 82% (inactive)
11 | COC(=O)CC1C(=O)NC2CCCCC2N1C(=O)CCl (configuration not stated) | 0% (inactive)
12 | CN(Cc1ccc(Cl)cc1)C(=O)CCl | 18% (inactive)
13 | CCCCCCCN(C(=O)CCl)c1cccc(C)c1 | 58% (inactive)
14 | COc1ccc(C(C(=O)NC2CCCCC2)N(C(=O)CCl)c2ccc(C)cc2)cc1 (configuration not stated) | 82% (inactive)
15 | CCC1(CC)Cc2ccccc2-c2nc(CCl)[nH]c(=O)c21 | 84% (inactive)
16 | COC(CN(C(=O)CCl)C(C(=O)NC1CCCCC1)c1ccccc1C)OC (configuration not stated) | 0% (inactive)
17 | CCc1ccc(-c2nc(CCl)cs2)cc1 | 40% (inactive)
18 | COc1cccc(N(C(=O)CCl)C(C(=O)NCCc2ccccc2)c2cccs2)c1 (configuration not stated) | 75% (inactive)
19 | O=Cc1[nH]c2ccccc2c1N(C(=O)CCl)c1ccc([N+](=O)[O-])cc1 | 75% (inactive)
20 | COC(=O)C1Cc2ccccc2CN1C(=O)CCl (configuration not stated) | 40% (inactive)
21 | O=c1[nH]c(CCl)nc2cc(-c3ccc(F)cc3)sc12 | 100%
22 | O=C(CCl)N(C/C=C/c1ccccc1)c1ccc2c(c1)OCCO2 | 58% (inactive)
23 | Cc1ccc2c(c1)c(=O)c1c3n2CCN(C(=O)CCl)C3CC1 (configuration not stated) | 57% (inactive)
24 | COc1ccc(N(C(=O)CCl)C(C(=O)NCCc2ccccc2)c2cccs2)cc1 (configuration not stated) | 86% (inactive)

Row | Structure (SMILES) | inhibition
25 | O=C(NC1CCCCC1)C(c1cccnc1)N(C(=O)CCl)c1ccc(F)cc1 (configuration not stated) | 100%
26 | CCCN(C(=O)CCl)C1=CCCCC1 | 0% (inactive)
27 | O=C(CCl)N1c2ccccc2OCC1c1ccccc1 (configuration not stated) | 37% (inactive)
28 | CC(C)N(CC(=O)Nc1ccc(Cl)cc1C(F)(F)F)C(=O)CCl | 7% (inactive)
29 | COc1ccc(CN(CCC(c2ccccc2)c2ccc(OC(C)C)cc2)C(=O)CCl)cc1OC (configuration not stated) | 81% (inactive)
30 | COc1ccc(N(C(=O)CCl)C(C(=O)NCCc2ccccc2)c2cccs2)cc1Cl (configuration not stated) | 100%
31 | CC1CCc2c(sc3nc(C(C)(C)C)nc(N4CCN(C(=O)CCl)CC4)c23)C1 (configuration not stated) | 48% (inactive)
32 | O=C(NC1CCCC1)C(c1ccc(F)cc1)N(Cc1ccccc1Cl)C(=O)CCl (configuration not stated) | 61% (inactive)
33 | CCCCCn1c(=O)c2ccccc2n2c(CCl)nnc12 | 73% (inactive)
34 | COc1ccc(C(CCN(Cc2ccc(OC)c(OC)c2)C(=O)CCl)c2ccccc2)cc1 (configuration not stated) | 100%
35 | CC(=O)n1cc(N(C(=O)CCl)c2ccc(Cl)cc2)c2ccccc21 | 38% (inactive)
36 | COc1ccc(C(C(=O)NC2CCCCC2)N(C(=O)CCl)c2ccc(Cl)cc2)cc1 (configuration not stated) | 100%
37 | Cc1ccc2c(c1)c1c3n2CCN(C(=O)CCl)C3CCC1 (configuration not stated) | 96%
38 | O=C(CCl)N1c2ccccc2SCC1c1ccccc1 (configuration not stated) | 65% (inactive)
39 | Cc1cccc(CN2CCN(C(=O)CCl)CC2)c1 | 90%
40 | COc1ccc(C(C(=O)NC2CCCCC2)N(C(=O)CCl)c2cccc(Cl)c2)cc1 (configuration not stated) | 100%
41 | C=CCOc1ccccc1CN(C(=O)CCl)c1ccc2c(c1)OCO2 | 35% (inactive)
42 | Cc1ccc(NC(=O)Cc2nc(CCl)cs2)cc1 | 55% (inactive)
43 | Cc1nn(-c2ccccc2)c(Cl)c1CN(C(=O)CCl)c1cccc2ccccc12 | 34% (inactive)
44 | CC(C)CCn1c(=O)c2ccccc2n2c(CCl)nnc12 | 87% (inactive)
45 | O=C(O)C1Cc2ccccc2CN1C(=O)CCl (configuration not stated) | 84% (inactive)
46 | COc1cccc(-c2nc(CCl)cs2)c1 | 50% (inactive)
47 | O=S(=O)(c1ccc(Cl)cc1)N1CCC2(CC1)CO2 | 94%
48 | O=C(CCl)N(Cc1cc(=O)[nH]c2ccccc12)c1ccccc1 | 38% (inactive)

Row | Structure (SMILES) | inhibition
49 | CC(=O)n1cc(N(C(=O)CCl)c2ccccc2)c2ccccc21 | 0% (inactive)
50 | O=C(CCl)N(Cc1ccccc1)c1ccccc1 | 56% (inactive)
51 | Cc1nn(-c2ccc(Cl)cc2)c2[nH]c(CCl)cc(=O)c12 | 26% (inactive)
52 | COc1ccccc1NS(=O)(=O)c1ccc2nc(CCl)[nH]c2c1 | 88% (inactive)
53 | CC1CCCN(C(=O)CCl)C1 (configuration not stated) | 34% (inactive)
54 | CN(Cc1ccc(Cl)s1)C(=O)CCl | 83% (inactive)
55 | CC1CCN(C(=O)CCl)CC1 | 53% (inactive)
56 | Cc1nn(-c2ccccc2)c(Cl)c1CN(C(=O)CCl)c1ccc(Cl)cc1 | 93%
57 | COc1cc2c(cc1OC)C(c1ccccc1)N(C(=O)CCl)CC2 (configuration not stated) | 81% (inactive)
58 | O=C(CCl)N(CCc1ccccc1)CCc1ccccc1 | 57% (inactive)
59 | CN(C)C(=O)CN1CCN(C(=O)CCl)CC1 | 3% (inactive)
60 | N#CCCN(C(=O)CCl)c1cccc(Cl)c1 | 69% (inactive)
61 | O=C(CCl)N(c1ccccc1)C1CCCCC1 | 24% (inactive)
62 | Cc1cccc(N(Cc2cc(=O)[nH]c3ccccc23)C(=O)CCl)c1 | 82% (inactive)
63 | Cc1ccc(N(C(=O)CCl)C(C(=O)NC2CCCCC2)c2cccnc2)cc1C (configuration not stated) | 76% (inactive)
64 | O=C(CCl)N(c1ccc(Cl)cc1)c1c[nH]c2ccccc12 | 23% (inactive)
65 | O=C(CCl)N1CCN(S(=O)(=O)c2ccc3ccccc3c2)CC1 | 100%
66 | CCOc1ccc(CN(C)C(=O)CCl)cc1 | 47% (inactive)
67 | CCC(C)N(CC(=O)Nc1cccc(C)c1C)C(=O)CCl (configuration not stated) | 26% (inactive)
68 | O=c1cc(CCl)nc2scc(-c3ccccc3)n12 | 22% (inactive)
69 | CC(=O)n1cc(N(C(=O)CCl)c2ccc(C)cc2)c2ccccc21 | 70% (inactive)
70 | CCOC(=O)N1CCN(C(=O)CCl)CC1 | 22% (inactive)
71 | O=c1cc(CCl)nc(Cc2c(Cl)cccc2Cl)[nH]1 | 59% (inactive)
72 | O=C(NC1CCCCC1)C(c1cccnc1)N(C(=O)CCl)c1cccc(Cl)c1 (configuration not stated) | 100%
